Legend:
[1] = test system: Human-derived gastric cancer OCUM-2MD3 cells; details: OCUM-2MD3, 72 h
[2] = target: purified recombinant human FGFR2 protein (Homo sapiens (Human), UniProt P21802); assay: Inhibitory effect on FGFR2 kinase activity; format: biochemical; details: ATP 75 μM
purified recombinant human FGFR2 protein, sequence (P21802 22-821): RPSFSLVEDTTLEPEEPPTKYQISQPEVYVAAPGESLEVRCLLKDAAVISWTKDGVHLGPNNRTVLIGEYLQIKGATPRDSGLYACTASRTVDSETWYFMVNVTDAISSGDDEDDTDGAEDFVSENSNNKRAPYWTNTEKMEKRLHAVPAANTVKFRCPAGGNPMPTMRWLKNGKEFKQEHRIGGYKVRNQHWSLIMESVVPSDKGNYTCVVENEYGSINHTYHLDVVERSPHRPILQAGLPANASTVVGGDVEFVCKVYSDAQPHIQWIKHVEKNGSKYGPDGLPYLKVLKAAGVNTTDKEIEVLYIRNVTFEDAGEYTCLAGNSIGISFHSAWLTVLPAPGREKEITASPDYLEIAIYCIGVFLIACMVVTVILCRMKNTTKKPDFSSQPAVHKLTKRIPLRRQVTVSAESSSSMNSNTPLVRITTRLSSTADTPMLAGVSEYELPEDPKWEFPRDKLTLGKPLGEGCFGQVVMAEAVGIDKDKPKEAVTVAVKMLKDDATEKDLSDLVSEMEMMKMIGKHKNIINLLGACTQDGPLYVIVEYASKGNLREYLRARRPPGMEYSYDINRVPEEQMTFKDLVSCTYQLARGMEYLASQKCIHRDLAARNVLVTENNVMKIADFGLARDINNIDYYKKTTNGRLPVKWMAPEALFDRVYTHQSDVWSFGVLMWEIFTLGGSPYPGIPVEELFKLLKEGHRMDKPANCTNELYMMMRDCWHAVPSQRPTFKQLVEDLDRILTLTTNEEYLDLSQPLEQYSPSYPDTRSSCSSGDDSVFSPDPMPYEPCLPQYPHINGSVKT

Row | GI50 [1] [µM] | IC50 [2] [µM] | Compound
1 | < 0.0046 |  | C=CC(=O)N1C[C@@H](n2cc(C#Cc3cc(OC)cc(OC)c3)c3c(N)ncnc32)C[C@H]1C(=O)OC [Ex. Compound 66, (2S,4S)-methyl 1-acryloyl-4-(4-amino-5-((3,5-dimethoxyphenyl)ethynyl)-7H-pyrrolo[2,3-d]pyrimidin-7-yl)pyrrolidine-2-carboxylate]
2 |  | > 10 | CC(C)c1cc(C#Cc2nn([C@H]3CCN(C(=O)/C=C/CN(C)C)C3)c3ncnc(N)c23)cc(C(C)C)c1 [Ref. Ex. Compound 4, (S)-1-(3-(4-amino-3-((3,5-diisopropylphenyl)ethynyl)-1H-pyrazolo[3,4-d]pyrimidin-1-yl)pyrrolidin-1-yl)-4-(dimethylamino)but-2-en-1-one]
